{
  "source": "patent EP1844786A1",
  "about": "“Extracts of Curcuma longa and their cosmetic and dermatological uses” (EXSYMOL S.A.M., priority 2006, dated 2007)",
  "system": "métabolisation de la testostérone dans des épidermes reconstruits d'origine humaine",
  "test": "Effect on testosterone metabolisation in reconstructed human epidermis (Test 1; labelled testosterone, silica-plate chromatography, radioactivity counting)",
  "format": "cell-based",
  "conditions": "10^-4M; for inhibition at 100 µM: relative to untreated control, 24 h, mean of 3 epidermes",
  "from_the_text": "Test 1 : mise en évidence de l'effet d'un extrait de Curcuma longa sur la métabolisation de la testostérone dans des épidermes reconstruits d'origine humaine (fournisseur : SkinEthic®).\nCes épidermes constituent un matériel biologique présentant une forte homologie avec l'épiderme humain, et permettant de tester de manière réaliste un produit destiné à être appliqué à la surface de la peau. Un extrait glycolique de feuilles de Curcuma longa a donc été testé, à différentes concentrations. Leur action a par ailleurs été comparée à celle d'un inhibiteur spécifique de la 5-alpha-réductase, le Finastéride® (molécule de référence dans ce type d'évaluation). Des épidermes reconstruits de 17 jours ont ainsi été pré-cultivés en plaque 24 puits, pendant 24 heures. Puis 100 µl de testostérone marquée ont été déposés sur la face cornée de chaque épiderme. Après 24 nouvelles heures, les milieux de culture ont été prélevés pour analyse. Il est alors regardé la métabolisation de la testostérone par chromatographie sur plaque de silice et par comptage direct de la radioactivité des différents spots, à l'aide du logiciel \"Optiquant version 3 (packard)\". Différents métabolites, et en particulier la dihydrotestostérone (DHT), sont identifiés à l'aide de standards. Chaque point est la moyenne de 3 mesures effectuées sur des épidermes différents.",
  "note": "Like-named read-outs stand apart in the source and are kept apart here.",
  "data": [
    {"smiles": "CC(C)(C)NC(=O)[C@H]1CC[C@H]2[C@@H]3CC[C@H]4NC(=O)C=C[C@]4(C)[C@H]3CC[C@]12C", "note": "[Finastéride]", "values": [
      {"measurement": "inhibition at 100 µM", "setting": "read-out: % inhibition métabolisation testostérone", "value": 54, "unit": "%"},
      {"measurement": "inhibition at 100 µM", "setting": "read-out: % inhibition transformation en DHT", "value": 92, "unit": "%"},
      {"measurement": "Ratio DHT/testo.", "setting": "untreated control 2,2", "value": "0,1"}
    ]}
  ]
}
